target: PIK3CG (human) (UniProt P48736); assay: Assessment of PIK3CG Kinase Activity
Sequence (P48736 whole entry, looked up): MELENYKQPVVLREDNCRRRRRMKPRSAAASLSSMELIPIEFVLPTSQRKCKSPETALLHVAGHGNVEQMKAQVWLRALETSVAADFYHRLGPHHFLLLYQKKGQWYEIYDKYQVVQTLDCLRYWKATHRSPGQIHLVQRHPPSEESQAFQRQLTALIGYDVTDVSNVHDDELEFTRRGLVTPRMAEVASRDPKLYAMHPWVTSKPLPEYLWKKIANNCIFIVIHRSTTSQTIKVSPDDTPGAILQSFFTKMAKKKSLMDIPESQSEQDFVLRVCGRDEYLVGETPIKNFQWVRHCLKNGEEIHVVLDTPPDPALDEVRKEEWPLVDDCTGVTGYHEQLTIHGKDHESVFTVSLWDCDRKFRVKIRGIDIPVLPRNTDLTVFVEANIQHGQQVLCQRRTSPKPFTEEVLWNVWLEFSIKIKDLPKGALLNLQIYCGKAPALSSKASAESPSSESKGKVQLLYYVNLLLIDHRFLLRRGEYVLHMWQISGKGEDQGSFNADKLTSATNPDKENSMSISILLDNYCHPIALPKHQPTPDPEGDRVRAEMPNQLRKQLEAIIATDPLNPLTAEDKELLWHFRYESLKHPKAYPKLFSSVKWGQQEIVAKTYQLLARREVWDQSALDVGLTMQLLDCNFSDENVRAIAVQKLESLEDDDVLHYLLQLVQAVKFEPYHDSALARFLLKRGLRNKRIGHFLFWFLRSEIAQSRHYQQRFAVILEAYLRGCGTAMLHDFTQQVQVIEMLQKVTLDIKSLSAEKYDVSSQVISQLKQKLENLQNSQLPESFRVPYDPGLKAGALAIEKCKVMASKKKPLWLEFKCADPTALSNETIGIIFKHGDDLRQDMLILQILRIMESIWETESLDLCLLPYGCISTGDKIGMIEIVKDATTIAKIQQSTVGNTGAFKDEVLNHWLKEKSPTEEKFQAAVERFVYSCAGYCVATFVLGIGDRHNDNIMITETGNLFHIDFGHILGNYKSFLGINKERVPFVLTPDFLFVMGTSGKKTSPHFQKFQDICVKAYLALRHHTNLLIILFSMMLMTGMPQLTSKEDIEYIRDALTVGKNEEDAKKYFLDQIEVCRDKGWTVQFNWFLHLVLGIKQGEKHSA

Row | Compound | IC50
1 | CCN(CC)C(=O)N1CC[C@H](CNC(=O)Nc2nc3c(s2)-c2c(c(-c4cncnc4)nn2-c2ccccc2Cl)CC3)C1 | < 800 nM
2 | CCc1cnc(CCNC(=O)Nc2nc3c(s2)-c2c(c(-c4cncnc4)nn2C2CCN(C)CC2)CC3)o1 | < 800 nM
3 | NC(=O)c1cccc(CNC(=O)Nc2nc3c(s2)-c2c(c(-c4cccnc4)nn2C2CCN(C4CCCC4)CC2)CC3)c1 | < 800 nM
4 | O=C(NCCNS(=O)(=O)C1CC1)Nc1nc2c(s1)-c1c(c(-c3ccccc3)nn1-c1ccccc1Cl)CC2 | < 800 nM
5 | O=C(NCc1cccc(N2CCNC2=O)c1)Nc1nc2c(s1)-c1c(c(-c3cncnc3)nn1-c1ccccc1Cl)CC2 | < 800 nM
6 | O=C(NCc1ccc(N2CCNC2=O)cc1)Nc1nc2c(s1)-c1c(c(-c3ccccc3)nn1-c1cccc(Cl)c1)CC2 | < 800 nM
7 | Cn1cc(CCNC(=O)Nc2nc3c(s2)-c2c(c(-c4ccccc4)nn2-c2ccccc2Cl)CC3)cn1 | < 800 nM
8 | CNC(=O)c1cccc(CNC(=O)Nc2nc3c(s2)-c2c(c(C4CC4)nn2-c2ccccc2Cl)CC3)c1 | < 800 nM
9 | CCc1csc(CCNC(=O)Nc2nc3c(s2)-c2c(c(-c4cncnc4)nn2-c2ccccc2Cl)CC3)n1 | < 800 nM
10 | CCc1cccc(CNC(=O)Nc2nc3c(s2)-c2c(c(-c4cccnc4)nn2-c2ccccc2Cl)CC3)c1 | < 800 nM
11 | CC(C)c1cccc(CNC(=O)Nc2nc3c(s2)-c2c(c(C4CC4)nn2-c2ccccc2Cl)CC3)c1 | < 800 nM
12 | CN(C)C(=O)[C@@H]1CCCC[C@H]1NC(=O)Nc1nc2c(s1)-c1c(c(-c3ccccc3)nn1-c1ccccc1Cl)CC2 | < 800 nM
13 | CNC(=O)c1cccc(CNC(=O)Nc2nc3c(s2)-c2c(c(-c4cccnc4)nn2C2CCN(C4CCCC4)CC2)CC3)c1 | < 800 nM
14 | O=C(Nc1nc2c(s1)-c1c(c(-c3cccnc3)nn1-c1ccccc1Cl)CC2)N1CCC(N2Cc3ccccc3NC2=O)C1 (configuration not stated) | < 800 nM
15 | CC(C)(C)OC(=O)NCCNC(=O)Nc1nc2c(s1)-c1c(c(-c3ccccc3)nn1-c1ccccc1Cl)CC2 | < 800 nM
16 | O=C(NCCc1nc(C2CC2)no1)Nc1nc2c(s1)-c1c(c(C3CC3)nn1-c1ccccc1Cl)CC2 | < 800 nM
17 | CCn1cnc(CCNC(=O)Nc2nc3c(s2)-c2c(c(C4CC4)nn2-c2ccccc2Cl)CC3)c1 | < 800 nM
18 | C[C@@H](C(=O)N1CCC[C@@H]1CNC(=O)Nc1nc2c(s1)-c1c(c(-c3cncnc3)nn1-c1ccccc1Cl)CC2)N(C)C(=O)OC(C)(C)C | < 800 nM
19 | NS(=O)(=O)c1ccc(-n2nc(-c3cccnc3)c3c2-c2sc(NC(=O)NCc4cccc(N5CCNC5=O)c4)nc2CC3)c(Cl)c1 | < 800 nM

Row | Compound | IC50
20 | CC(=O)N(C)c1cccc(CNC(=O)Nc2nc3c(s2)-c2c(c(-c4cccnc4)nn2-c2ccccc2Cl)CC3)c1 | < 800 nM
21 | CCn1cnc(CCNC(=O)Nc2nc3c(s2)-c2c(c(-c4cccnc4)nn2C2CCN(C)CC2)CC3)c1 | < 800 nM
22 | O=C(NCCN1CCOCC1)Nc1nc2c(s1)-c1c(c(-c3cccnc3)nn1-c1ccccc1Cl)CC2 | < 800 nM
23 | CC(C)(CNc1ccc(C(C)(C)C)cc1)NC(=O)Nc1nc2c(s1)-c1c(c(-c3cccnc3)nn1-c1ccccc1Cl)CC2 | < 800 nM
24 | O=C(Nc1nc2c(s1)-c1c(c(-c3cccnc3)nn1-c1ccccc1Cl)CC2)N1CCC(CN2CCc3ccccc3C2=O)C1 (configuration not stated) | < 800 nM
25 | O=C(Nc1nc2c(s1)-c1c(c(-c3cncnc3)nn1-c1ccccc1Cl)CC2)N1CCC(NC(=O)C(F)(F)F)C1 (configuration not stated) | < 800 nM
26 | CCc1csc(CCNC(=O)Nc2nc3c(s2)-c2c(c(-c4cccnc4)nn2C2CCN(C)CC2)CC3)n1 | < 800 nM
27 | O=C(NCCc1nc(C2CC2)no1)Nc1nc2c(s1)-c1c(c(-c3cccnc3)nn1-c1ccccc1Cl)CC2 | < 800 nM
28 | CC(C)(C)OC(=O)CCNC(=O)Nc1nc2c(s1)-c1c(c(-c3ccccc3)nn1-c1ccccc1Cl)CC2 | < 800 nM
29 | O=C(Nc1nc2c(s1)-c1c(c(-c3cccnc3)nn1-c1ccccc1Cl)CC2)NC1CCC(N2CCNC2=O)CC1 (configuration not stated) | < 800 nM
30 | CCc1csc(CCNC(=O)Nc2nc3c(s2)-c2c(c(C4CC4)nn2-c2ccccc2Cl)CC3)n1 | < 800 nM
31 | CS(=O)(=O)NCCNC(=O)Nc1nc2c(s1)-c1c(c(-c3ccccc3)nn1-c1ccccc1Cl)CC2 | < 800 nM
32 | O=C(NCc1cccc(CN2CCOCC2)n1)Nc1nc2c(s1)-c1c(c(-c3cncnc3)nn1-c1ccccc1Cl)CC2 | < 800 nM
33 | CCc1noc(CCNC(=O)Nc2nc3c(s2)-c2c(c(-c4cccnc4)nn2C2CCN(C)CC2)CC3)n1 | < 800 nM
34 | CN1CCC(n2nc(-c3cccnc3)c3c2-c2sc(NC(=O)NCC(=O)N(C)C)nc2CC3)CC1 | < 800 nM
35 | CNC(=O)Nc1nc2c(s1)-c1c(c(-c3cccnc3)nn1-c1ccccc1Cl)CC2 | < 800 nM
36 | O=C(NC[C@@H]1CCCN1)Nc1nc2c(s1)-c1c(c(-c3cncnc3)nn1-c1ccccc1F)CC2 | < 800 nM
37 | CCOCCNC(=O)Nc1nc2c(s1)-c1c(c(-c3ccccc3)nn1-c1ccccc1Cl)CC2 | < 800 nM
38 | O=C(NCc1cccc(N2CCNC2=O)c1)Nc1nc2c(s1)-c1c(c(-c3cccnc3)nn1C1CCN(C3CCCC3)CC1)CC2 | < 800 nM

Row | Compound | IC50
39 | CN(C)CC(=O)N1CC[C@H](CNC(=O)Nc2nc3c(s2)-c2c(c(-c4cncnc4)nn2-c2ccccc2Cl)CC3)C1 | < 800 nM
40 | O=C1CCC(CNC(=O)Nc2nc3c(s2)-c2c(c(-c4cccnc4)nn2-c2ccccc2Cl)CC3)N1 (configuration not stated) | < 800 nM
41 | O=C(NC[C@H]1CCN(C(=O)N2CCCC2)C1)Nc1nc2c(s1)-c1c(c(-c3ccccc3)nn1-c1cccc(Cl)c1)CC2 | < 800 nM
42 | CN(C)C(=O)Nc1nc2c(s1)-c1c(c(-c3cncnc3)nn1-c1ccccc1F)CC2 | < 800 nM
43 | COc1cccc(CCNC(=O)Nc2nc3c(s2)-c2c(c(-c4cncnc4)nn2-c2ccccc2Cl)CC3)c1OC | < 800 nM
44 | CC(C)c1cnc(CCNC(=O)Nc2nc3c(s2)-c2c(c(-c4ccccc4)nn2-c2cccc(Cl)c2)CC3)o1 | < 800 nM
45 | O=C(NCCn1ccnc1)Nc1nc2c(s1)-c1c(c(-c3cncnc3)nn1-c1ccccc1F)CC2 | < 800 nM
46 | CNC(=O)[C@@H](C)NC(=O)Nc1nc2c(s1)-c1c(c(-c3ccccc3)nn1-c1ccccc1Cl)CC2 | < 800 nM
47 | O=C(NC[C@H]1CCCN1)Nc1nc2c(s1)-c1c(c(-c3cncnc3)nn1-c1ccccc1F)CC2 | < 800 nM
48 | CN1CCN(C(=O)CCNC(=O)Nc2nc3c(s2)-c2c(c(-c4ccccc4)nn2-c2ccccc2Cl)CC3)CC1 | < 800 nM
49 | O=C(NC[C@@H]1CCNC1)Nc1nc2c(s1)-c1c(c(-c3cncnc3)nn1-c1ccccc1Cl)CC2 | < 800 nM
50 | CCc1noc(CCNC(=O)Nc2nc3c(s2)-c2c(c(C4CC4)nn2-c2ccccc2Cl)CC3)n1 | < 800 nM
51 | CN(C)C(=O)Nc1nc2c(s1)-c1c(c(-c3cccnc3)nn1-c1ccccc1Cl)CC2 | < 800 nM
52 | CC(C)(C)OC(=O)N1CCC[C@@H]1CNC(=O)Nc1nc2c(s1)-c1c(c(-c3cncnc3)nn1-c1ccccc1F)CC2 | < 800 nM
53 | Nc1c(Br)cc(OCC2CCN(C(=O)Nc3nc4c(s3)-c3c(c(-c5cccnc5)nn3-c3ccccc3Cl)CC4)C2)cc1Br (configuration not stated) | < 800 nM
54 | C[C@H](NC(=O)Nc1nc2c(s1)-c1c(c(-c3ccccc3)nn1-c1ccccc1Cl)CC2)C(=O)N1CCN(C)CC1 | < 800 nM
55 | C[C@H](NC(=O)Nc1nc2c(s1)-c1c(c(-c3ccccc3)nn1-c1ccccc1Cl)CC2)C(=O)N1CCOCC1 | < 800 nM
56 | CN(C)C(=O)CCNC(=O)Nc1nc2c(s1)-c1c(c(-c3cccnc3)nn1-c1ccccc1Cl)CC2 | < 800 nM
57 | NC(=O)Nc1nc2c(s1)-c1c(c(-c3cccnc3)nn1-c1ccc(S(N)(=O)=O)cc1Cl)CC2 | < 800 nM
